IC50 and Ki data for eight molecules are collected here from ChEMBL document CHEMBL1909046, “DrugMatrix in vitro pharmacology data”.

The target of one experiment is T1, Adenosine receptor A1 (Homo sapiens, UniProt P30542).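 Note: radioligand binding assay at the adenosine A1 receptor, with DPCPX serving as the labelled ligand; in other assays of this panel Not Active means under 50% inhibition at 10 µM.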
T1 sequence (P30542 whole entry): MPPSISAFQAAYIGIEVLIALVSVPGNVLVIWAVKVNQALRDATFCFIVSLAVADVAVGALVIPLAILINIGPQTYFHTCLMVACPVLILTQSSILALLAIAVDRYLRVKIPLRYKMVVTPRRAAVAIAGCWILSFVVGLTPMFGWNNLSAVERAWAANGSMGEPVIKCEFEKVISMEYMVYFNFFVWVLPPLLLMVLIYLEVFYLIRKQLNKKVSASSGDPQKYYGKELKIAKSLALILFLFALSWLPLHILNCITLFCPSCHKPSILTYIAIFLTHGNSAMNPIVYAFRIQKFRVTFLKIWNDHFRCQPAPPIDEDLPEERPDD
The format is cell membranes, CHO, Membrane. The following applies: cho.

In experiment [1] the target is Tyrosine-protein kinase Fyn (Homo sapiens, UniProt P06241). The experiment can be described thus: biochemical. The following applies: insect cells. The format is cell-based, Insect cells.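 Note: enzymatic inhibition of Fyn kinase activity measured with Poly(Glu:Tyr) as the phosphorylation substrate; in other assays of this panel Not Active means under 50% inhibition at 10 µM.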
Chain of Tyrosine-protein kinase Fyn (P06241 whole entry): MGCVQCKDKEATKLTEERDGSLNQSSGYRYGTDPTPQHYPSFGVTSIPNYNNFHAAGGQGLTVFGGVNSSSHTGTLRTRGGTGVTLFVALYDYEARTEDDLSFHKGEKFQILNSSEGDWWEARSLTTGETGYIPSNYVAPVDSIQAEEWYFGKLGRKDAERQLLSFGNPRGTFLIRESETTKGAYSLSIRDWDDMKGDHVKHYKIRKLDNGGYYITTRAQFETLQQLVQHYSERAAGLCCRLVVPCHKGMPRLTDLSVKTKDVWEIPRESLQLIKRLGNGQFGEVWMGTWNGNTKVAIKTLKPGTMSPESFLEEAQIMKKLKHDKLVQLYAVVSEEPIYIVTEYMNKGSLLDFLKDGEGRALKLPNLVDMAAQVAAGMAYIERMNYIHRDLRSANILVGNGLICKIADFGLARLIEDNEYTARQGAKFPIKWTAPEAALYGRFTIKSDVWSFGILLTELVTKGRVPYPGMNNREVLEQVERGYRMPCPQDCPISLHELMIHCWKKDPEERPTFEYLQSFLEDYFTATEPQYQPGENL
In experiment [2] the target is Receptor tyrosine-protein kinase erbB-2 (Homo sapiens, UniProt P04626). The experiment can be described thus: biochemical. The class given is cell-based, Insect cells. The settings on record: insect cells.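 Note: inhibition of HER2 kinase enzyme activity, measured with Poly(Glu:Tyr) as the phosphorylation substrate; in other assays of this panel Not Active means under 50% inhibition at 10 µM.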
Chain of Receptor tyrosine-protein kinase erbB-2 (P04626 whole entry): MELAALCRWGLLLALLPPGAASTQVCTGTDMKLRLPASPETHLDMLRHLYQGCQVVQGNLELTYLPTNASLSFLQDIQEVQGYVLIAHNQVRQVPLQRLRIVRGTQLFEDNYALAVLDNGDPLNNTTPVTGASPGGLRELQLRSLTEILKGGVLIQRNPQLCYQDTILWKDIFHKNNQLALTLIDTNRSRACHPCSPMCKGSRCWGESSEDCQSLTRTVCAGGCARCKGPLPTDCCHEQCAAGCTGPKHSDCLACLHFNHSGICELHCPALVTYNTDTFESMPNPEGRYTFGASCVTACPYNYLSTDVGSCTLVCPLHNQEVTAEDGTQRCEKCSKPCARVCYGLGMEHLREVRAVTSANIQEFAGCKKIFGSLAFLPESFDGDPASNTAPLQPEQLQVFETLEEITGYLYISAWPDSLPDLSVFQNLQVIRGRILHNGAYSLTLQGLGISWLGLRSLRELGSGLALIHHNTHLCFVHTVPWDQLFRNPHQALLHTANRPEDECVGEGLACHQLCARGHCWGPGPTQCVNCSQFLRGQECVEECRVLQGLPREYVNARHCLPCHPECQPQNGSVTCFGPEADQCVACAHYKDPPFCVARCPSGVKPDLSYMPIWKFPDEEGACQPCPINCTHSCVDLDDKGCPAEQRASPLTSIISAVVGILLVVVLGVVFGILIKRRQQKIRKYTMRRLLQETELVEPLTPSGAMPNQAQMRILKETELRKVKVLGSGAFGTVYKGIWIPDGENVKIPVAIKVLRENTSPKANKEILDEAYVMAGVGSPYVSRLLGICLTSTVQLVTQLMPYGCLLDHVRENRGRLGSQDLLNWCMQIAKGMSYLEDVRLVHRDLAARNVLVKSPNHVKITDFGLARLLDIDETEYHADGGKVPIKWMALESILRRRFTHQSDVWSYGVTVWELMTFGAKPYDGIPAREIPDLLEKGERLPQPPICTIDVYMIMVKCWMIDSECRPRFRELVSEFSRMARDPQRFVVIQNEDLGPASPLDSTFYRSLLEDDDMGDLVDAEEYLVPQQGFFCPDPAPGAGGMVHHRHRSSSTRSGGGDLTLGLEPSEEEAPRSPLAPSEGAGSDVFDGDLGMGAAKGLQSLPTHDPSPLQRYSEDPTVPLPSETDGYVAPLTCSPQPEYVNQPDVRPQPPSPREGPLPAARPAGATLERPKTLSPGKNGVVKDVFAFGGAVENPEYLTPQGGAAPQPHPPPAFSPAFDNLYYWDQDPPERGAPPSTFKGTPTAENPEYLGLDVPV
The target in experiment [3] is T2, 3-hydroxy-3-methylglutaryl-coenzyme A reductase (Homo sapiens, UniProt P04035).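 Note: enzyme inhibition assay of HMG-CoA reductase using radiolabeled [14C]HMG-CoA as substrate; in other assays of this panel Not Active means under 50% inhibition at 10 µM.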
T2 sequence (P04035 whole entry): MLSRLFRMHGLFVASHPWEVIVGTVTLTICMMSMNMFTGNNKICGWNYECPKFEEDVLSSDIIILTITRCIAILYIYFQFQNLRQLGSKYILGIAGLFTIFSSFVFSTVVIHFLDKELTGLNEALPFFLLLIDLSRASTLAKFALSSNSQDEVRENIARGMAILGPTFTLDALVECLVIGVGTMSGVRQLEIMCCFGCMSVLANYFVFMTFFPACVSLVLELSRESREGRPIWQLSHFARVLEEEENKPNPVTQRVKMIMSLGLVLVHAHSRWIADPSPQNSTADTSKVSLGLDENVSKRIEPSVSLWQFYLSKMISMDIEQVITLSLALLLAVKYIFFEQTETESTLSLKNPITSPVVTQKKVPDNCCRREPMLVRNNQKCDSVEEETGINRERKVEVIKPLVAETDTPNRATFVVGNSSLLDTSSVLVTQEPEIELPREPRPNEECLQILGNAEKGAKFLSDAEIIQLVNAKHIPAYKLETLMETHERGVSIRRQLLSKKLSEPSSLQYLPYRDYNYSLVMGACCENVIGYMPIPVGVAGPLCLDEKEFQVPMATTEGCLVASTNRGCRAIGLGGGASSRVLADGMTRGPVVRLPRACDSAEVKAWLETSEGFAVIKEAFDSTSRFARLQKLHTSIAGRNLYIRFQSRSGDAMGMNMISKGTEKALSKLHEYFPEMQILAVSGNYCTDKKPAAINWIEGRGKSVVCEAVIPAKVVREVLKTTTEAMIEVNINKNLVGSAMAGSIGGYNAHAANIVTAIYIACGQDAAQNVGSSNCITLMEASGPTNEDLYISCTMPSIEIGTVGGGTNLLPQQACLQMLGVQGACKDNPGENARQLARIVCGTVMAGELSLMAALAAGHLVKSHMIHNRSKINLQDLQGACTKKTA
Further details: species or system Escherichia coli.

Experiment [4] has as its target T3, Cholecystokinin receptor type A (Homo sapiens, UniProt P32238). Note: in other assays of this panel Not Active means under 50% inhibition at 10 µM.
T3 sequence (P32238 whole entry): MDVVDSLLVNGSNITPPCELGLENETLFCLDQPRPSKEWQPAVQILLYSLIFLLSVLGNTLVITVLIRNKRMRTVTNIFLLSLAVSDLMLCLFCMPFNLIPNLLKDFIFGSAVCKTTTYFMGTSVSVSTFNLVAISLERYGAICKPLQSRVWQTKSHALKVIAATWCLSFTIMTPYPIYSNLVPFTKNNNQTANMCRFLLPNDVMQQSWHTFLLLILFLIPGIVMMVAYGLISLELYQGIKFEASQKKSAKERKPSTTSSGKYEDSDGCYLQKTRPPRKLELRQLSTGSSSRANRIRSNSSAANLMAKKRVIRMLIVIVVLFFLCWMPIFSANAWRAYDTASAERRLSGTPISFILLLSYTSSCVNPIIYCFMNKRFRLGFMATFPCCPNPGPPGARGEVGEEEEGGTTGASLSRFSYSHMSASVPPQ
The format is cell membranes, Membrane. The following applies: 1321-n1.

For a further experiment, the target named is Mu-type opioid receptor (Homo sapiens, UniProt P35372). The experiment can be described thus: DRUGMATRIX: Opiate mu (OP3, MOP) radioligand binding (ligand: [3H] Diprenorphine). The format is cell membranes, CHO-K1, Membrane. The following applies: cho-k1; Not Active = under 50% inhibition at 10 µM.
Chain of Mu-type opioid receptor (P35372 whole entry): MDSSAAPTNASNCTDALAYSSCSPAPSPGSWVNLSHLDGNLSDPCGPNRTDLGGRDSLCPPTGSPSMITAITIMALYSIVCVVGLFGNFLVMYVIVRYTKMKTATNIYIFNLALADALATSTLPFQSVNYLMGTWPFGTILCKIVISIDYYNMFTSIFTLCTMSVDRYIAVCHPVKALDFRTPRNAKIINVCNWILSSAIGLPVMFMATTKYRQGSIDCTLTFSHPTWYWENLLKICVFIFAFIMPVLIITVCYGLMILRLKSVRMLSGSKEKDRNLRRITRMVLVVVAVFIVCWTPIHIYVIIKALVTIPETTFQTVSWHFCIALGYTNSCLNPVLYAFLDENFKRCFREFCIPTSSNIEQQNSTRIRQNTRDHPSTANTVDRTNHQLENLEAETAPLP
Experiment [5] can be described thus: DRUGMATRIX: beta-Lactamase enzyme inhibition (substrate: Nitrocefin). The following applies: Not Active = under 50% inhibition at 10 µM. Further details: species or system Bacillus cereus.
The target of experiment [6] is T4, Amine oxidase [flavin-containing] A (Homo sapiens, UniProt P21397).
T4 sequence (P21397 whole entry): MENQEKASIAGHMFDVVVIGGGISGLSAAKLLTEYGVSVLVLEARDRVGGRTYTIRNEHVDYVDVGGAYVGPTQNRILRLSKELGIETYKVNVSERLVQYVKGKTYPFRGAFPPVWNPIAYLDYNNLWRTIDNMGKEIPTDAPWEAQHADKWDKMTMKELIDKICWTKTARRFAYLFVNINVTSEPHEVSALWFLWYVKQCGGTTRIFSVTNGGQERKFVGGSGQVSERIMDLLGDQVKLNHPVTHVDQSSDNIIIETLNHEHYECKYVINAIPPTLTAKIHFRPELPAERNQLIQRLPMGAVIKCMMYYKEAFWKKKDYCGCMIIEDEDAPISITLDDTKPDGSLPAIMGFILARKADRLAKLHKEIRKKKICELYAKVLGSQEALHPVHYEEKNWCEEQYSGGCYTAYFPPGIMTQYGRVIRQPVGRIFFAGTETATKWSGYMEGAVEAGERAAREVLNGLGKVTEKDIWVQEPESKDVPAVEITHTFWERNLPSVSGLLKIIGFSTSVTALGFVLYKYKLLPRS
Put plainly: DRUGMATRIX: Monoamine Oxidase MAO-A enzyme inhibition (substrate: Kynuramine). The settings on record: bti-tn-5b1-4; Not Active = under 50% inhibition at 10 µM. Also noted: species or system BTI-TN-5B1-4.

The target in experiment [7] is Delta-type opioid receptor (Homo sapiens, UniProt P41143). The class given is cell membranes, HEK293, Membrane. The following applies: hek293. Note: in other assays of this panel Not Active means under 50% inhibition at 10 µM.
Chain of Delta-type opioid receptor (P41143 whole entry): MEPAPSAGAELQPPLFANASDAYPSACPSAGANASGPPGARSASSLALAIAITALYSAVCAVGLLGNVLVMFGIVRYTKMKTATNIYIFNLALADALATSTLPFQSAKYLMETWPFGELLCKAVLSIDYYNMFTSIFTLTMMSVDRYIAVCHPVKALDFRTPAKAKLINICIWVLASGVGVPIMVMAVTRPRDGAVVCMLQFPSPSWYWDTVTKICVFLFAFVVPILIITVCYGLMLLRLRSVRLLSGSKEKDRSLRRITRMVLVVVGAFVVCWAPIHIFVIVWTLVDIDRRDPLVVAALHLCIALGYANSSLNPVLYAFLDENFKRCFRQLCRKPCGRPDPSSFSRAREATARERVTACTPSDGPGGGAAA
The target of experiment [8] is 5-hydroxytryptamine receptor 6 (Homo sapiens, UniProt P50406). The class given is cell membranes, HeLa, Membrane. The settings on record: hela. Note: in other assays of this panel Not Active means under 50% inhibition at 10 µM.
Chain of 5-hydroxytryptamine receptor 6 (P50406 whole entry): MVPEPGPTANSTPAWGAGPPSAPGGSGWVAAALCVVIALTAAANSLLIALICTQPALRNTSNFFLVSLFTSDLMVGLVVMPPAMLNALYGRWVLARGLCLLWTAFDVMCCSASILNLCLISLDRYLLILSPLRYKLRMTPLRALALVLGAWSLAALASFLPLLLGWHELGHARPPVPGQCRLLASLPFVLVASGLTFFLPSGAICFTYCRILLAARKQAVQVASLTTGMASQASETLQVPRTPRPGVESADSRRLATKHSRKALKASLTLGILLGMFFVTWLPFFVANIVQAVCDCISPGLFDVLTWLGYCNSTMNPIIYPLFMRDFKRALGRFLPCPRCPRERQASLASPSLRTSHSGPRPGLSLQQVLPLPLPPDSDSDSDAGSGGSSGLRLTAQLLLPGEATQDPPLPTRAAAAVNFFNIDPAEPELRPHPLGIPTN
In experiment [9] the target is Matrix metalloproteinase-9 (Homo sapiens, UniProt P14780). The class given is cell-based.
Chain of Matrix metalloproteinase-9 (P14780 whole entry): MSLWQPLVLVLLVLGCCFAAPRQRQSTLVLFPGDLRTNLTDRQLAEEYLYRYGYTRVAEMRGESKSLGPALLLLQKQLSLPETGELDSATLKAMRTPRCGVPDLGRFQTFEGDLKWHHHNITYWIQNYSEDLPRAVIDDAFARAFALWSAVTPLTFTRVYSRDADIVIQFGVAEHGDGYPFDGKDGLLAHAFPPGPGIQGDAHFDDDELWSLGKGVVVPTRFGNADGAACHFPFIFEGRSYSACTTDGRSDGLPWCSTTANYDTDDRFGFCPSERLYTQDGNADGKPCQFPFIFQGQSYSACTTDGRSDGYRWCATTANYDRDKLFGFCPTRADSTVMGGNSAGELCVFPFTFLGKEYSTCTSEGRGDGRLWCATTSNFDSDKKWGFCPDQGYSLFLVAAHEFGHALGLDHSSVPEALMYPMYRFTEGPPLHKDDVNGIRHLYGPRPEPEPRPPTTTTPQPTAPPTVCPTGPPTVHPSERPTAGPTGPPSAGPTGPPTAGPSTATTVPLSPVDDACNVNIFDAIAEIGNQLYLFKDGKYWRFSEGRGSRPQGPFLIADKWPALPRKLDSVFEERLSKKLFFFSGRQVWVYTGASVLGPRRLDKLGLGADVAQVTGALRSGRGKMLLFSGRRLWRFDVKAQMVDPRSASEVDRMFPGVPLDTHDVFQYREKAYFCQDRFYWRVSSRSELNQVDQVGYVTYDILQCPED
In experiment [10] the target is 5-hydroxytryptamine receptor 4 (Cavia porcellus, UniProt O70528). The class given is cell membranes, Dunkin-Hartley, Striatum, Membrane. Note: in other assays of this panel Not Active means under 50% inhibition at 10 µM.
Chain of 5-hydroxytryptamine receptor 4 (O70528 whole entry): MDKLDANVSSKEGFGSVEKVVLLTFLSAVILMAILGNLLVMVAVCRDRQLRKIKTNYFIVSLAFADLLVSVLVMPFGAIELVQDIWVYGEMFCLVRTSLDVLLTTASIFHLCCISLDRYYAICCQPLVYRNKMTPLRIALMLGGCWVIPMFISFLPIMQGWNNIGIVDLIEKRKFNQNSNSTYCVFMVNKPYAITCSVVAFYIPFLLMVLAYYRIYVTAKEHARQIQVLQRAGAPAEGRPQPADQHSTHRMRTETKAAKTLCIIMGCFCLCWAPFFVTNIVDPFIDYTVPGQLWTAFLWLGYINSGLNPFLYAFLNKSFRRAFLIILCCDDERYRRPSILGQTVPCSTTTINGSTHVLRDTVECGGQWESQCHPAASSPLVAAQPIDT

Usually IC50 stands for the point on the concentration scale where inhibition reaches its midpoint. One may read the Ki as a dissociation constant, usually derived from enzyme kinetics or from competition with a known ligand. `CC(C)(C)NCC(O)c1cc(O)cc(O)c1` (stereo not given) [TERBUTALINE]: the IC50 entry (against Adenosine receptor A1; in [1]; in experiment [2]; in experiment [3]; in experiment [4]; at Mu-type opioid receptor) was “Not Active” in each case. The IC50 result in [5], in [6], in experiment [7], in experiment [8], in experiment [9] and in [10] was “Not Active” in each case. Besides, the Ki result in [5] is recorded as “Not Active”.
In the case of `CN(C)[C@@H]1C(O)=C(C(N)=O)C(=O)[C@@]2(O)C(O)=C3C(=O)c4c(O)cccc4[C@@](C)(O)[C@H]3C[C@@H]12` [TETRACYCLINE], the IC50 result (at Adenosine receptor A1; in experiment [1]; in [2]; in experiment [3]; in [4]; on Mu-type opioid receptor) was “Not Active” throughout. Besides, the IC50 result in experiment [5], in [6], in experiment [7], in experiment [8], in experiment [9] and in [10] was “Not Active” throughout. Moreover, the Ki entry in experiment [5] is given as “Not Active”.
Turning to `c1ccc2[nH]c(-c3cscn3)nc2c1` [THIABENDAZOLE], the IC50 result (on Adenosine receptor A1; in [1]; in [2]; in experiment [3]; in experiment [4]; on Mu-type opioid receptor) was “Not Active” throughout. Moreover, the IC50 entry in experiment [5], in experiment [6], in experiment [7], in experiment [8], in [9] and in experiment [10] was “Not Active” in each case. Besides, the inhibition constant (Ki) entry in experiment [5] is recorded as “Not Active”.
Take `Cc1ccc(C(=O)C(C)CN2CCCCC2)cc1` (stereo not given) [TOLPERISONE]: the IC50 entry (against Adenosine receptor A1; in experiment [1]; in experiment [2]; in experiment [3]; in [4]; on Mu-type opioid receptor) was “Not Active” each time. For the same molecule, the IC50 result in [5], in experiment [6], in experiment [7], in experiment [8], in experiment [9] and in [10] was “Not Active” each time. In addition, the inhibition constant (Ki) result in [5] is “Not Active”.
Consider `NC(CO)(CO)CO` [TROMETHAMINE], for which the IC50 entry (against Adenosine receptor A1; in experiment [1]; in experiment [2]; in experiment [3]; in [4]; on Mu-type opioid receptor) was “Not Active” in each case. Moreover, the concentration for half-maximal inhibition (IC50) result in experiment [5], in [6], in experiment [7], in experiment [8], in [9] and in [10] was “Not Active” in each case. The Ki result in experiment [5] is recorded as “Not Active”.
`CN1[C@@H]2CC[C@H]1C[C@@H](OC(=O)c1c[nH]c3ccccc13)C2` [TROPISETRON]: the IC50 entry (against Adenosine receptor A1; in experiment [1]; in [2]; in experiment [3]; in experiment [4]; at Mu-type opioid receptor) was “Not Active” in each case. For the same molecule, the IC50 entry is “Not Active” in [5]; “Not Active” in experiment [6]; “Not Active” in [7]; “Not Active” in experiment [8]; “Not Active” in experiment [9]; 324 nM in [10] (read-out: IC50). In addition, the inhibition constant Ki result in experiment [5] was “Not Active”; in experiment [10] (read-out: Ki) it was 54 nM.
With `COc1cc(C(=O)NC2CCCNC2)cc(OC)c1OC` (stereo not given) [TROXIPIDE], the IC50 result (at Adenosine receptor A1; in experiment [1]; in experiment [2]; in experiment [3]; in experiment [4]; on Mu-type opioid receptor) was “Not Active” in each case. For the same molecule, the concentration for half-maximal inhibition (IC50) entry in experiment [5], in [6], in experiment [7], in experiment [8], in experiment [9] and in [10] was “Not Active” each time. Further, the Ki result in experiment [5] is listed as “Not Active”.
On to `CC(C)[C@H](N)C(=O)OCCOCn1cnc2c(=O)nc(N)[nH]c21` [VALACYCLOVIR], for which the half-maximal inhibitory concentration (IC50) result (against Adenosine receptor A1; in experiment [1]; in experiment [2]; in experiment [3]; in experiment [4]; on Mu-type opioid receptor) was “Not Active” throughout. In addition, the IC50 entry in experiment [5], in experiment [6], in experiment [7], in experiment [8], in experiment [9] and in [10] was “Not Active” in each case. In experiment [5], the Ki entry is reported as “Not Active”.
